“Also recorded” adds a separate entry of the source. Where two headings read alike, the source gives them in different places.
Columns and labels:
[1] = tested on: human PMN transmigration across endothelial cells; assay: Human PMN transmigration across HMEC monolayers, LTB4-induced; assay type: cell-based
Method: PMN were freshly isolated from whole blood obtained by venipuncture from healthy human donors (who denied taking medication for 2 weeks prior to donation; BWH protocol no. 88-02642) and anti-coagulated with acid citrate dextrose as in (40, 41). Briefly, plasma and mononuclear cells were removed by aspiration from the buffy coat after centrifugation (400 g; 20 min) at room temperature. Histopaque (density 1.077) was from Sigma-Aldrich (St. Louis, Mo.). RBCs were sedimented using 2% gelatin, and residual RBCs were removed by lysis in ice-cold NH4Cl buffer. The cell suspensions were >90% PMN as determined by light microscopic evaluation. PMN were suspended at 5×10^7 cells/ml in HBSS with 10 mM Hepes, pH 7.4, and without Ca^2+ or Mg^2+ (Sigma-Aldrich, St. Louis, Mo.). PMN were used within 2 hours of their isolation.
Human Microvascular Endothelial Cells (HMEC; a gift from Francisco Candal of the Centers for Disease Control, Atlanta, Ga.) were obtained as primary cultures. For preparation of experimental HMEC monolayers, confluent endothelial cells were grown on 0.33 cm^2 ring-supported polycarbonate filters (5 μm pore size; Costar Corp., Cambridge, Mass.) in the apical-to-basolateral direction. Cells were grown for ˜1 week prior to transmigration experiments.
Transmigration was conducted essentially as in ref. (41). PMN were incubated with either vehicle-containing buffer or compound for 15 minutes at 37° C. A chemotactic gradient was established by placing HMEC inserts that had been washed in HBSS with Ca^2+ and Mg^2+ (denoted +/+) in 10^−8M LTB4 in the lower chambers. Neutrophils (10^6 cells) were added to 50 μl HBSS +/+ in the upper chambers and cells were incubated at 37° C. for 90 min. Transmigrated PMN were quantified by assessing the PMN azurophilic marker myeloperoxidase and a calibration curve. PMN were lysed by the addition of Triton X-100 to a final concentration of 0.5%. The samples were acidified with citrate buffer (final concentration 100 mM, pH 4.2). An aliquot of each sample was added to an equal volume of ABTS solution (1 mM ABTS [2′-azino-bis(3-ethylbenzo-thiazoline-6-sulfonic acid)], 0.03% H2O2, 100 mM sodium citrate buffer, pH 4.2) in a 96-well plate. The resulting color was monitored using a plate reader at 405 nm and a calibration curve for cell number.

FVB male mice [2] = assay: Acute inflammatory exudates: zymosan A murine peritonitis (leukocyte infiltration); assay type: in vivo, mouse
Method: Peritonitis was carried out using 6-8 week-old FVB male mice (Charles River Laboratories) fed laboratory Rodent Diet 5001 (Purina Mills) that were anesthetized with isoflurane, and compounds to be tested were administered intraperitoneally. […] Each compound tested or vehicle alone was suspended in 1 μl ethanol and mixed in sterile saline (120 μl). After intraperitoneal injections (either 2 or 4 hours of acute inflammation), the mice were sacrificed in accordance with the Harvard Medical Area Standing Committee on Animals protocol no. 02570, and peritoneal lavages were collected rapidly and placed in an ice bath (4° C.) for enumeration, differential counts, and further analysis.

male FvB mice [3] = assay type: in vivo
Method: (§1) Five to seven week old male FvB mice (Charles River Laboratories) were housed in isolation cages under viral antibody-free conditions. Mice were fed a standard diet (Laboratory Rodent Diet 5001, PMI Nutrition International) that contained no less than 4.5% total fat with 0.26% omega-3 fatty acids and <0.01% C20:4. After Harvard Medical Area IRB approval (Protocol #02570), mice were sensitized with intraperitoneal injections of ovalbumin (OVA) (Grade III; Sigma Chemical Co.) (10 μg) plus 1 mg aluminum hydroxide (ALUM) (J.T. Baker Chemical Co.) as adjuvant in 0.2 ml PBS on days 0 and 7. On days 14, 15, 16 and 17, the mice received PD1 (2, 20 or 200 ng) (a product of biogenic synthesis (52)) or PBS with 1.6 mM CaCl2 and 1.6 mM MgCl2 (0.1 ml) by intravenous injection 30 min prior to an aerosol challenge containing either PBS or 6% OVA for 25 min/day. Matching experiments were performed with 20 ng PD1 prepared by total organic synthesis (62).
On day 18, 24 h after the last aerosol challenge, either airway responsiveness to aerosolized methacholine (0, 20, 50 and 75 mg, 10 sec) was measured, bilateral bronchoalveolar lavage (BAL) (2 aliquots of 1 ml PBS plus 0.6 mM EDTA) was performed or tissues were harvested for histological analysis. Lung resistance was measured using a Flexivent ventilator (SciReq). Resistance was measured as a function of time for each animal, and peak and average values for each dose of methacholine were recorded. […]
Murine lungs were fixed in 10% buffered formalin and paraffin embedded for hematoxylin and eosin and periodic acid Schiff staining (Sigma Chemical Co.). […] Three fields per slide were examined at 200× magnification for vessels, large airways and alveoli with EOS counted at 400× magnification in randomly assigned fields. […] Measurement of inflammatory mediators was determined in cell-free BAL fluid (BALF) (2000 g, 10 min) by sensitive and specific ELISAs, in tandem, for interleukin-5 (IL-5), IL-12, IL-13, PGD2 (R&D Systems), cysteinyl LTs, (Cayman Chemical Co.), and LXA4 (Neogen). […]

male FvB mice [4] = assay: Airway responsiveness to aerosolized methacholine in OVA-sensitized/challenged mice; assay type: in vivo, mouse
Method: as §1
On day 18, 24 h after the last aerosol challenge, either airway responsiveness to aerosolized methacholine (0, 20, 50 and 75 mg, 10 sec) was measured, bilateral bronchoalveolar lavage (BAL) (2 aliquots of 1 ml PBS plus 0.6 mM EDTA) was performed or tissues were harvested for histological analysis. Lung resistance was measured using a Flexivent ventilator (SciReq). Resistance was measured as a function of time for each animal, and peak and average values for each dose of methacholine were recorded. No BAL or histological analysis was performed on those animals undergoing airway hyper-responsiveness or lipid extraction studies.

male FvB mice [5] = assay: PD1 given after aeroallergen challenge (days 18-20), BAL on day 21; assay type: in vivo, mouse
Method: In select experiments, animals were sensitized and aeroallergen challenged for four days prior to receiving PD1 (20 ng) or PBS by intravenous injection (0.1 ml) on days 18, 19 and 20. On day 21, bilateral BAL was performed.
Murine lungs were fixed in 10% buffered formalin and paraffin embedded for hematoxylin and eosin and periodic acid Schiff staining (Sigma Chemical Co.). Tissue morphometry was performed by a member (K. Haley) of the Lung Histopathology Core Laboratory at Brigham and Women's Hospital who was blinded to the experimental conditions prior to histological analyses. Three fields per slide were examined at 200× magnification for vessels, large airways and alveoli with EOS counted at 400× magnification in randomly assigned fields. Vessels were identified by perivascular smooth muscle, and large airways were identified by at least ½ their diameter either cuboidal or columnar epithelia. Measurement of inflammatory mediators was determined in cell-free BAL fluid (BALF) (2000 g, 10 min) by sensitive and specific ELISAs, in tandem, for interleukin-5 (IL-5), IL-12, IL-13, PGD2 (R&D Systems), cysteinyl LTs, (Cayman Chemical Co.), and LXA4 (Neogen). Cells in BALF were resuspended in PBS, enumerated by hemocytometer, and concentrated onto microscope slides by cytocentrifuge (STATspin) (265 g). […]

FVB male mice [6] = conditions: cited from earlier work

CC/C=C\C[C@H](O)\C=C/C=C/C=C/[C@H](O)C/C=C\C/C=C\CCC(=O)O [PD1, 10R,17S-dihydroxy-docosa-4Z,7Z,11E,13E,15Z,19Z-hexaenoic acid]
inhibition of PMN transmigration ([1]; 1.0 nM, in response to leukotriene B4): 30% | attenuation of human neutrophil transmigration ([1]; 10 nM, LTB4 10^-8 M, 90 min): ~50% | reduction of PMN transmigration ([1]; 10-100 nM, in vitro): 35-45% | highest degree of inhibition of neutrophil transmigration observed ([1]; HMEC monolayers, neutrophils from >5 separate donors, each experiment): ≤ 50% | effect on LTB4-induced PMN transmigration (in words) ([1]; compound 15 min, LTB4 10^-8 M 90 min): reduced PMN transmigration; also recorded: inhibited LTB4-induced PMN migration; also recorded: stereoselectively reduces PMN transmigration in vitro | rank order of potency (FVB male mice [2]; 0.1 ng dose): Compound VI>>PD1>10S,17S-DT (the double dioxygenation product)>the Δ15-trans-PD1>>Compound V | activity on PMN infiltration (in words) (FVB male mice [2]; 1 ng/mouse dose): striking inhibition of PMN infiltration | PMN infiltration when given after initiation of inflammation (in words) (FVB male mice [2]; 1 ng/mouse i.p. 2 h after zymosan A, lavage at 4 h): diminished infiltration of PMN; also recorded: reduces PMN infiltration; also recorded: reduced PMN infiltration after initiation (2 h) of inflammation | inhibition of PMN infiltration (FVB male mice [2]; 1 ng/mouse, peritonitis): ~40% | inhibition of PMN infiltration (FVB male mice [2]; 10 ng and 100 ng doses (maintained)): ~40% | kind of joint anti-inflammatory action of PD1 and RvE1 (FVB male mice [2]; 10 ng/mouse i.p. of either or both, 2 h): additive rather than synergistic | PMN infiltration, PD1 and RvE1 administered together (in words) (FVB male mice [2]; 10 ng/mouse i.p., exudates at 2 h): reduced the infiltration of PMN | PMN infiltration (in words) (FVB male mice [2]; 10 ng/mouse, 4 h after injection (FIG. 9)): reduced PMN infiltration; also recorded: Statistically different from *zymosan A-injected mice | rank order of potency (FVB male mice [2]; 1-10 ng dose): PD1≈PD1 methyl ester>>Δ15-trans PD1>10S,17S-diHDHA (isomer I) | anti-inflammatory potency in vivo, PMN infiltration (in words) (FVB male mice [2]; dose range tested (FIG. 6), lavage at 2 h): dramatically reduced the infiltration of PMN into the peritoneum; also recorded: more potent than the dioxygenation product; also recorded: potent regulator of PMN infiltration in vivo | blocking of further PMN infiltration (FVB male mice [2]; given 2 h after zymosan A challenge): > 90% | recruitment of monocytes and lymphocytes to exudates (in words) (FVB male mice [2]; peritonitis, differential counts): increased the non-phlogistic recruitment of monocytes and lymphocytes; also recorded: regulated both monocyte and lymphocyte traffic | EOS and Lymphs in the peribronchial regions and airspaces (histology) (male FvB mice [3]; 2, 20 or 200 ng i.v., versus vehicle): substantially less EOS and Lymphs | EOS tissue infiltration around vessels and in large and peripheral airways (morphometry) (male FvB mice [3]; PD1 i.v. prior to challenge): significant decreases | EOS trafficking (male FvB mice [3]; as little as 2 ng of PD1): reduced | shape of dose response, protection on airway hyper-responsiveness (male FvB mice [4]; 2, 20, 200 ng): bell-shaped dose response with maximal protection | log ED200 for the mean airway resistance (male FvB mice [4]; 2, 20 and 200 ng, compared with vehicle): significantly increased | airway hyper-responsiveness: peak and average lung resistance in response to methacholine (male FvB mice [4]; PD1 0-200 ng i.v. prior to OVA challenge): decreased both peak and average lung resistance; also recorded: dampened; also recorded: reduces airway hyper-responsiveness | lung elastance or compliance (male FvB mice [4]; following allergen challenge (data not shown)): no significant changes | airway responses of control animals that received PBS rather than allergen (male FvB mice [4]; mouse, in vivo): no significant impact | numbers of total leukocytes, Eos and Lymphs in BALFs (male FvB mice [5]; 20 ng iv once a day for three days after challenge, day 21): significant decrements | resolution of allergic airway inflammation (in words) (male FvB mice [5]; PD1 treatment after aeroallergen challenge): has the capacity to accelerate resolution of allergic airway inflammation; also recorded: promoted the resolution of airway inflammation; also recorded: promotes resolution of allergen-driven leukocytes; also recorded: markedly accelerated the resolution of airway inflammation | inhibition of PMN infiltration (FVB male mice [6]; 100 ng/mouse, i.v., earlier experiments (ref 1)): ~40% | apparent maximal response, reduction of PMN infiltration (FVB male mice [6]; doses as low as 100 ng/mouse (ref 1)): ~50% | potency versus indomethacin in reducing PMN infiltration (FVB male mice [6]; i.v., earlier experiments (ref 1)): more potent than indomethacin

— patent US9364454B2, “Anti-inflammatory actions of neuroprotectin D1/protectin D1 and its natural stereoisomers” (The Brigham and Women's Hospital, Inc., priority 2005, dated 2016)
